Reference: patent publication US11447533B2, “Antimicrobial and anticancer peptides and conjugates and compositions, methods, articles and kits relating thereto” (George Mason Research Foundation, Inc., priority 2018, dated 2022)

Experiments:
[1] = system: E. coli ML35p outer membrane; experiment: NPN assay, outer membrane perturbation; type: cell-based, Escherichia coli; settings: DPBS; 25 μM peptide; 25 μM PMB = 100%
Method: (§1) Interactions with Bacterial Membranes. Interaction of the peptides with bacterial membranes in different phosphate buffers were evaluated using E. coli ML35p, constructed in our laboratory. At first, competent cells of E. coli ML35 were produced by conventional competent cell preparation method, then transformed with pBR322 plasmid. Transformed colonies were selected after growing on Luria-agar containing 50 μg/mL ampicillin. A single transformed colony was grown in presence of ampicillin first in Luria broth and then in MHBII and stored as 20% glycerol stock at −80° C. This frozen stock, on the day of the experiment, was thawed and grown in MHBII containing ampicillin up to OD600 nm=0.8-0.9, washed with PBS and then suspended in the respective buffer up to the required OD600 nm for use.
NPN Assay. The outer membrane perturbation of bacteria was evaluated by incubating E. coli ML35p with peptides in presence of NPN. 100 mM NPN in acetone was supplemented proportionately to a bacterial suspension of OD600 nm˜0.5 to achieve a final concentration of 20 μM of NPN and the mixture was equilibrated for 30 mins. Then, 90 μL of the bacterial suspension containing 20 μM NPN was added with 10 μL of 250 μM peptide (10×) solution in water and scanned for fluorescence intensity (excitation=350 nm, emission=420 nm). The % Perturbation was calculated by considering PMB to be causing 100% Perturbation and water (without peptide) as 0% Perturbation. Each peptide was tested in triplicate in each of the three phosphate buffers used.
When peptides partition from the bulk aqueous environment to the cellular membranes, they may cause small defects in the membrane organization, a signature of adsorption of the peptides into the membranes. Such small defects are called membrane perturbations and can be evaluated by utilizing molecular probes. One such molecular probe is NPN, which is a hydrophobic molecule and is usually repelled to enter the hydrophobic interiors of the membrane by the polar headgroups of membrane-lipids. However, when small defects and gaps are caused during the adsorption of the peptides into the membranes, NPN can enter through those defects and in the hydrophobic environment of the membrane interior the molecule fluoresces, which can be measured for quantification of the extent of membrane-perturbation and peptide adsorption in the cellular membrane.

[2] = system: E. coli ML35p outer membrane; experiment: Outer membrane disruption (β-lactamase leakage, nitrocefin); type: cell-based, Escherichia coli; settings: DPBS
Method: as §1
Membrane Disruptions. The outer and the inner membrane disruptions by the peptides were evaluated by incubating bacterial suspension with peptides and then measuring the activity of enzymes leaked out of the cells. 100 μL of 10× concentration of peptide in water was incubated with 900 μL bacterial suspension (OD600 nm˜0.1) in respective buffer for 3 hours at room temperature with gentle rotation. Then the cells and debris were separated by centrifugation (10000 r.p.m. for 30 mins) and the supernatant was collected and tested for activity of enzymes that had leaked out of the bacterial cells. HCMAB was used as a positive control to cause 100% membrane disruption and water as a negative causing 0% disruption.
The outer membrane disruption was tested by using the activity of beta-lactamase present in the periplasmic space of E. coli ML35p. Peptides when disrupt the outer membrane enough to cause beta-lactamase to come out, the degree of disruption can be measured by the virtue of the kinetics of the enzyme and using a chromogenic cephalosporin substrate called nitrocefin. β-lactamase mediated hydrolyzed product of nitrocefin has an absorbance αmax=486 nm. Supernatant collected from the incubation of peptide with bacteria was added with nitrocefin solution in DPBS and incubated at 35° C. and continuous absorbance readings. The slope of the linear section of the absorbance curve (absorbance vs time), was used as a measure of membrane disruption and the % Disruption was calculated as: Equation 7: […]
Some of the ATRA1-variants were further tested for their ability to disrupt outer and inner membranes to form pores or disruptions sufficiently large so as to allow enzymes to leak out of their cellular compartments (cytoplasm or periplasmic space). For this purpose, two reporter molecules were used with one being the substrate of a cytoplasmic enzyme and the other was a substrate for an enzyme residing in the periplasmic space. One of the reporters, nitrocefin was the substrate for β-lactamase, which is present in the bacterial periplasm, whereas the other molecule, ONPG, was the substrate for β-galactosidase, which resides in the cytoplasm of E. coli ML35p strain. […] Similarly, β-galactosidase activity in the supernatants is evidence of inner membrane disruption and possible pore formation. When the aforesaid supernatants were tested for nitrocefin and ONPG hydrolysis, the corresponding absorbance increased with time (data not shown) indicating β-lactamase and β-galactosidase activity, respectively, and thus disruption of both the inner and outer membranes. The slopes of the increase in absorbance as a function of time provides the rate of enzyme activity. The enzyme activities in supernatants collected after incubation of bacteria with the quaternary ammonium surfactant, hexadecyltrimethylammonium bromide (HCMAB) was used as an internal reference for 100% membrane disruption. Enzyme activity for supernatants collected for cells incubated in the absence of peptide provided a reference for 0% membrane disruption. Bee venom peptide melittin was used as a positive control. […]

[3] = Endotoxin binding: competitive displacement of BODIPY TR-Cadaverine from LPS; design: species or system Escherichia coli; settings: 5 μM peptide, 10 μM BC, 10 μg/mL LPS, low ionic-strength 10 mM Na-PO4
Method: FIGS. 2A-2B are graphs showing endotoxin binding. The figures depict the competitive displacement of BC from LPS/LTA by the peptides. 5 μM of each peptide was incubated with 10 μM BC and 10 μg/mL LPS from E. coli (0111:B4) or LTA from S. aureus. Fluorescence intensity was measured at excitation=580 nm and emission=620 nm. 10 μM BC without endotoxin was used as 100% displacement while 10 μM BC with 10 μg/mL LPS/LTA without any peptide as 0% displacement and the % displacement of BC by each peptide was calculated accordingly. […] had been used as a positive control. The horizontal dotted line coincides with the % displacement of BC by ATRA1 on the y-axis.
FIGS. 6A-6B are graphs showing endotoxin (LPS (FIG. 6A) and LTA (FIG. 6B)) binding. Competitive displacement of BC from LPS/LTA. In each case, 5 μM peptide was incubated with 10 μM BC and 10 μg/mL LPS from E. coli (0111:B4) or LTA from S. aureus. Fluorescence intensity was measured using excitation=580 nm and emission=620 nm. As a positive control 10 μM BC without endotoxin was used as a reference for 100% displacement while 10 μM BC with 10 μg/mL LPS/LTA without any peptide as a negative control and a reference for 0% displacement. These controls were used to calculate % BC displacement for each peptide.
Endotoxin Binding. The binding of endotoxin (LPS/LTA) was evaluated using a fluorogenic conjugateBODIPY TR-Cadaverine (BC). BC binds endotoxin loses its fluorescence. The peptide competitively displaces BC from endotoxin and the fluorescence is reestablished. Competitive inhibition of endotoxin-BC binding was utilized due to presence of peptides already in complexion with endotoxin. 25 μL of 20 μM of peptides in 10 mM Na—PO4 buffer were incubated with 25 μL of LPS (40 μg/mL) or LTA (40 μg/mL) for 15 min and then added with 50 μL of BC (20 uM). Peptides bind to LPS or LTA and competitively prevents BC bind to the endotoxin. BC loses its fluorescence on binding to endotoxin. The fluorescence intensity of the unbound BC was measured at excitation=580 nm and emission=620 nm.
BC contains two functional moieties: BODIPY (boron-dipyrromethene) and cadaverine connected via a carboxamide. BODIPY is the fluorophore of BC and fluoresces in the free state in solution but loses fluorescence when bound to LPS/LTA. The competitive displacement of BC from LPS/LTA by AMPs and thus regeneration of the fluorescence has frequently been used to estimate the binding strength of AMPs with LPS/LTA. In the present studies, 5 μM of each peptide was used to displace BC from LPS/LTA. […] Such observation contradicts the initial assumption that substitution of Lys with arginine would result in increased efficiency of LPS binding. However, with sequential substitutions of Lys with arginine, starting with ATRA1-AR, peptide variants show increased LPS binding with each additional arginine substitution. In terms of LPS binding: ATRA1-AR<ATRA1-AR2<ATRA1-AR3. In ATRA1-R3, the lysine residues at 9th, 5th and 1st positions of ATRA1 were substituted with arginine. In ATRA1-R6 all of the lysine residues were replaced with arginine.

[4] = system: E. coli ATCC 25922; experiment: Antimicrobial efficacy (resazurin virtual colony count); type: cell-based, Escherichia coli; settings: pH 7.4
Method: Antimicrobial Studies. The phosphate buffers used for antimicrobial assays were supplemented with non-nitrogenous energy source, 0.1% (w/v) glucose. To conduct antimicrobial assays, bacterial strains were first suspended in respective buffers. E. coli (ATCC 25922) and B. cereus (ATCC 11778) were grown in MHB II up to OD600 nm˜1 and stored as frozen stock in 20% glycerol at −80° C. Occasionally they were thawed and enumerated by serial dilution and spreading on MHB II agar plates. The concentrations of the frozen stocks of E. coli and B. cereus strains were 1.0-1.1*10^8 CFU/mL with OD600 nm˜0.8. In case of other bacterial strains, they were grown on the days of experiment up to OD600 nm˜1-1.5 and then adjusted to OD600 nm˜0.8. The growth media of the drug-resistant bacterial strains were supplemented with few of the respective antibiotics against which they are resistant. 200 μL of the 0.8 OD600 nm culture were added to 10 mL of the respective buffer to obtain a suspension which was used to incubate with equal volumes of peptide solution in the same buffer.
Antimicrobial assays in different phosphate buffers and serum were conducted by adapting, with necessary modifications a fast high-throughput method based on Virtual Colony Count technique and later modified by incorporating the use of resazurin. At first serial dilution of a microbial strain in respective buffer was poured in the wells of 96 well polypropylene microplate and was then added with same volume of 2× MHB II supplemented with 80 μg/mL resazurin and incubated at 35° C. in a Gemini EM Microplate Reader (Molecular Devices) overnight with intermittent shaking. As the microbe grows it reduces non-fluorescent resazurin to fluorescent resorufin and the fluorescent intensity of each well were measured (excitation=570 nm, emission=590 nm) each 5 min for 15 hours. The time (t, min) to reach a certain fluorescence (RFU=20000 with respect to the starting fluorescence) was correlated with the initial bacterial concentration (in CFU/mL) in the particular well to obtain a calibration plot of the form: Log([Bacteria],CFU/mL)=b+m*t Equation 4: […]
To obtain antimicrobial efficacy of the peptides, 50 μL of serially diluted peptide in a buffer was incubated with 50 μL microbial suspension in the same buffer for 3 hours in black polypropylene 96 well plate. After incubation the wells were added with 100 μL of 2× MHB II supplemented with 80 μg/mL resazurin and then incubated with continuous fluorescence reading for overnight time period as described earlier. The surviving microbial population (CFU/mL) in each well were calculated by first finding the time to reach a fluorescence of RFU=20000 and the correlation (4) for the specific microbial strain and buffer. % Survival represents the proportion of viable cells in peptide treated cells relative to cells treated with the respective buffer alone. Equation 5: […]
Finally, the antimicrobial effectiveness of each peptide against the particular microbial strain in the specific buffer was determined by plotting % microbial survival as a function of the log of the concentration of the peptide and fitting the resulting data to a variable-slope sigmoidal regression model (equation 6). In this equation, log(EC50) represents the log of the concentration of the peptide required to kill half of the microbial population, where Smin and Smax correspond to the minimal and maximal microbial survival values (respectively), and H, Hill slope, is the parameter defining the steepness of the transition slopes of sigmoidal survival curves. % Microbial survival=Smin+(Smax−Smin)/(1+10^log(EC^50^)-log[peptide]*H) Equation 6: […]
The antimicrobial efficacies of the peptides were first tested against the model Gram-negative bacteria, E. coli ATCC 25922, in different phosphate buffers having varied ionic strengths and compositions. The phosphate buffers that were used included 10 mM sodium phosphate (calculated ionic strength˜25 mM), PBS and DPBS. […]

[5] = PBS (high / physiologically relevant ionic strength)

Row | Sequence | membrane perturbation with respect to PMB [1] | time to reach maximum signal for nitrocefin hydrolysis [2] | LPS binding (BC displacement), in words [3] | antimicrobial efficacy, in words ([4]; DPBS (with Ca++ and Mg++)) | antimicrobial efficacy, in words [4, 5]
1 | KRWKKFFKKWK (SEQ ID NO: 12) [ATRA1-W2] | higher OM perturbation than ATRA1 | – | – | – | –
2 | KRWKKWFKKWK (SEQ ID NO: 13) [ATRA1-W3] | higher OM perturbation than ATRA1 | approximately 30 mins | – | – | –
3 | RRAKRFFKRLK (SEQ ID NO: 8) [ATRA1-AR3] | – | – | ATRA1-AR<ATRA1-AR2<ATRA1-AR3 | lose activity in DPBS | greater effectiveness than both ATRA1-A and ATRA1
4 | KRAKRFFKRLK (SEQ ID NO: 7) [ATRA1-AR2] | – | – | ATRA1-AR<ATRA1-AR2<ATRA1-AR3 | lose activity in DPBS | more potent than ATRA1-A
